3 compounds from PMC5702387, “The Antifungal Plant Defensin HsAFP1 Is a Phosphatidic Acid-Interacting Peptide Inducing Membrane Permeabilization” (Frontiers in Microbiology, 2017) can be followed below.

What all share (type): binding
The target in experiment [1] is T1, HsAFP1 (Heuchera sanguinea, UniProt P0C8Y5).
T1 construct: mature plant defensin, recombinantly produced in Pichia pastoris and purified
Description: DSC of lipid vesicles (lipid phase transition). The settings on record: PC/PG/PA 75/15/10 vesicles, 0.5 mM; 40 uM HsAFP1; HEPES pH 7, low salt.

Experiment [2] concerns the target T1, HsAFP1. The experiment in a line: rELISA, immobilised lipid. The settings on record: 12.5 uM HsAFP1; pH 7.4; 37 C.
The target in experiment [3] is T2, HsAFP1 (Heuchera sanguinea, UniProt P0C8Y5, H32A/R52A).
T2 construct: mature plant defensin, recombinantly produced in Pichia pastoris and purified
T2 sequence (P0C8Y5 whole entry H32A/R52A): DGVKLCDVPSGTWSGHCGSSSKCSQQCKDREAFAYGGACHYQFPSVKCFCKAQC
The experiment in a line: rELISA, immobilised lipid. Particulars: 12.5 uM peptide; PBS-based blocking buffer pH 7.4; 37 C.

Bounds are passed on as bounds.

T1 sequence (P0C8Y5 whole entry): as the sequence (P0C8Y5 whole entry H32A/R52A) above, with A32H, A52R counted along it

Take `CCCCCCCCCCCCCC(=O)OC[C@H](COP(=O)(O)O)OC(=O)CCCCCCCCCCCCC` [dimyristoylphosphatidic acid]: at HsAFP1 [1], the “DSC of lipid vesicles (lipid phase transition)” value is recorded as “HsAFP1 specifically interacted with vesicles containing PA”.

Take methyl-PA: the “% reduction of binding vs PA” value at HsAFP1 [2] is reported as over 75%.

For the compound phosphatidic acid, the “% reduction of binding vs native HsAFP1” value on HsAFP1 [3] is listed as 77%.
